From PubChem BioAssay (NCI)
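Values below derive from 48-hour exposures of cells grown in 96-well plates, with endpoints linearly interpolated between the two concentrations bracketing the appropriate inhibition level. GI50 is the concentration that inhibits growth by half. At the TGI there is no net growth.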

Columns and labels:
Test in all cases: growth of human tumour cells (NCI), 48 h
[1] = test system: EKVX NSCLC
[2] = test system: HCT-116 colon
[3] = test system: IGROV1 ovarian
[4] = test system: MOLT-4 leukemia
[5] = test system: NCI-H522 lung
[6] = test system: OVCAR-3 ovarian
[7] = test system: OVCAR-5 ovarian
[8] = test system: OVCAR-8 ovarian
[9] = test system: SW-620 colon
[10] = test system: DLD-1 colon
[11] = test system: DMS 273 small cell lung

| SMILES | TGI [1] [µM] | TGI [2] [µM] | TGI [3] [µM] | TGI [4] [µM] | TGI [5] [µM] | TGI [6] [µM] | TGI [7] [µM] | TGI [8] [µM] | TGI [9] [µM] | GI50 [1] [µM] | GI50 [2] [µM] | GI50 [3] [µM] | GI50 [4] [µM] | GI50 [5] [µM] | GI50 [6] [µM] | GI50 [7] [µM] | GI50 [8] [µM] | GI50 [9] [µM] | TGI [10] [µM] | TGI [11] [µM] |
| --- | --- | --- | --- | --- | --- | --- | --- | --- | --- | --- | --- | --- | --- | --- | --- | --- | --- | --- | --- | --- |
| O=C(O)C1=NN(c2ccc(S(=O)(=O)O)cc2)C2(C1)C(Cl)C(=O)N2c1nc2ccccc2s1 (stereo unspecified) | 34.3 | 33.1 | 21.5 | 39.6 | 25.8 | 33.8 | 32.8 | 38.8 | 19.8 | – | – | – | – | – | – | – | – | – | – | – |
| C[n+]1c(-c2ccc(NC(=O)c3ccc(C(=O)Nc4ccc(-c5cn6ccccc6[n+]5C)cc4)cc3)cc2)cn2ccccc21 | > 100 | > 100 | > 100 | > 100 | > 100 | > 100 | > 100 | > 100 | > 100 | – | – | – | – | – | – | – | – | – | – | – |
| C=C1CC(COc2ccc3c(C)c(C)c(=O)oc3c2C)(c2ccccc2)OC1=O (stereo unspecified) | 20.8 | 2.77 | 3.47 | 3.05 | 4.16 | 9.66 | 25.1 | 3.59 | 3.5 | – | – | – | – | – | – | – | – | – | – | – |
| O=C1CS/C(=N/N=C/c2cn(Cc3ccc(Cl)cc3Cl)c3ccccc23)N1 | 48.5 | > 100 | > 100 | > 100 | > 100 | > 100 | > 100 | 30.6 | > 100 | – | – | – | – | – | – | – | – | – | – | – |
| CCOC(=O)Cn1nnc2cc(Nc3c(C)[n+]([O-])c4cc(F)c(OCC)cc4[n+]3[O-])ccc21 | > 100 | > 100 | > 100 | > 100 | > 100 | > 100 | > 100 | > 100 | > 100 | – | – | – | – | – | – | – | – | – | – | – |
| O=C(Sc1c(-c2ccccc2)c(=O)n(-c2ccccc2)c(=S)n1-c1ccccc1)c1ccco1 | > 100 | > 100 | > 100 | > 100 | > 100 | > 100 | > 100 | > 100 | > 100 | – | – | – | – | – | – | – | – | – | – | – |
| CCOc1ccc(NCC2CC/C(=C\C=C\c3ccccc3)C2=O)cc1 (stereo unspecified) | > 86.2 | 20.4 | 17.5 | > 42.9 | 32.3 | 34.4 | 53.4 | 42.9 | 21.3 | – | – | – | – | – | – | – | – | – | – | – |
| COc1ccc(C2=C(Cl)C(=O)O/C2=C\c2ccc(OC)c(Br)c2)cc1Cl | 90.8 | 53.1 | > 100 | > 100 | 57.5 | 47 | > 100 | 51.8 | > 100 | – | – | – | – | – | – | – | – | – | – | – |
| O=C1/C(=C/c2ccc(Cl)cc2)CCCc2ccc(F)cc21 | 61 | > 100 | 68.3 | > 100 | 54.5 | 51.4 | > 100 | 75.1 | 31.6 | 27.9 | > 100 | 14.6 | 12.1 | 12.2 | 16.9 | 32.4 | 22.8 | 15.4 | – | – |
| Cc1nc(SCC(N)=O)c2sc(=S)n(-c3ccccc3)c2n1 | > 10 | > 10 | > 10 | > 10 | > 10 | > 10 | > 10 | > 10 | > 10 | – | – | – | – | – | – | – | – | – | – | – |
| NC(N)=NS(=O)(=O)c1ccc(NC(=O)c2cccc3c(NNc4ccc(S(N)(=O)=O)cc4)c4ccccc4nc23)cc1 | > 100 | > 100 | > 100 | 74.1 | 91.6 | > 100 | > 100 | > 100 | > 100 | – | – | – | – | – | – | – | – | – | – | – |
| O=C1N/N=C\c2ccc(cc2)OCc2cccc(n2)COc2ccc(cc2)/C=N\NC1=O | > 25 | > 25 | > 25 | > 25 | > 25 | > 25 | > 25 | > 25 | > 25 | – | – | – | – | – | – | – | – | – | – | – |
| S=c1[nH]nc(Cn2c3ccc(Br)cc3c3nc4ccccc4nc32)n1C1CCCCC1 | > 100 | 40.2 | > 100 | 28.6 | 67.4 | > 59.7 | > 100 | > 67.5 | > 100 | – | – | – | – | – | – | – | – | – | – | – |
| CC(C)(C)c1cc(/C=C2/NC(=O)NC2=O)cc(C(C)(C)C)c1O | 24 | 30.4 | 31.1 | 44.6 | 26.4 | 27.9 | 30.8 | 38.5 | 39.3 | – | – | – | – | – | – | – | – | – | – | – |
| C[N+]1(CCN=C=NC2CCCCC2)CCOCC1 | > 100 | > 100 | > 100 | > 100 | > 100 | > 100 | > 100 | > 100 | > 100 | – | – | – | – | – | – | – | – | – | – | – |
| CCCCCCCCCCCCNC(=O)CCC(NC(=O)c1ccc(N(C)Cc2cnc3nc(N)nc(N)c3n2)cc1)C(=O)NCCCCCCCCCCCC (stereo unspecified) | > 100 | > 100 | > 100 | > 100 | > 100 | > 100 | > 100 | > 100 | > 100 | – | – | – | – | – | – | – | – | – | – | – |

| SMILES | TGI [1] [µM] | TGI [2] [µM] | TGI [3] [µM] | TGI [4] [µM] | TGI [5] [µM] | TGI [6] [µM] | TGI [7] [µM] | TGI [8] [µM] | TGI [9] [µM] | GI50 [1] [µM] | GI50 [2] [µM] | GI50 [3] [µM] | GI50 [4] [µM] | GI50 [5] [µM] | GI50 [6] [µM] | GI50 [7] [µM] | GI50 [8] [µM] | GI50 [9] [µM] | TGI [10] [µM] | TGI [11] [µM] |
| --- | --- | --- | --- | --- | --- | --- | --- | --- | --- | --- | --- | --- | --- | --- | --- | --- | --- | --- | --- | --- |
| COc1ccc(OC)c(NC(=O)C(=O)C(C(=O)c2ccccc2F)C2OC(=O)c3ccccc32)c1 (stereo unspecified) | > 100 | > 100 | > 100 | > 100 | 71.5 | – | > 100 | > 100 | > 100 | – | – | – | – | – | – | – | – | – | > 100 | > 100 |
| O=P1(C(O)/C=C/c2ccccc2)N(Cc2ccccc2)[C@@H]2CCCC[C@H]2N1Cc1ccccc1 (stereo partly specified) | 35.9 | 14 | 14.4 | 9.77 | 12.1 | 27.8 | 31.5 | 13.2 | 33.3 | – | – | – | – | – | – | – | – | – | – | – |
| O=P(OCc1ccccc1)(OCc1ccccc1)C(O)/C=C/c1ccccc1 (stereo unspecified) | 95.6 | 39.8 | 49.2 | 48.1 | 57.7 | 43.6 | > 100 | 55.9 | 68.3 | – | – | – | – | – | – | – | – | – | – | – |
| c1c(N2CCOCC2)ssc1=[N+]1CCOCC1 | > 100 | > 100 | > 100 | > 100 | > 100 | – | > 100 | > 100 | > 100 | – | – | – | – | – | – | – | – | – | > 100 | > 100 |
| Cn1nc2c(c1N)Cc1c(nn(C)c1N)-c1ccccc1-2 | > 100 | > 100 | > 100 | > 100 | > 100 | > 100 | > 100 | > 100 | > 100 | – | – | – | – | – | – | – | – | – | – | – |
| Clc1cc(C(c2cc(Cl)sc2Cl)c2cc(Cl)sc2Cl)c(Cl)s1 | > 100 | > 100 | > 100 | > 100 | > 100 | > 100 | > 100 | > 100 | > 100 | – | – | – | – | – | – | – | – | – | – | – |
| CC1(C)OC[C@@H](C[C@H](O)COCc2ccccc2)O1 | > 100 | > 100 | > 100 | > 100 | > 100 | > 100 | > 100 | > 100 | > 100 | – | – | – | – | – | – | – | – | – | – | – |
| Nc1nncc2[nH]cnc12 | > 100 | > 100 | > 100 | > 45.3 | > 100 | > 100 | > 100 | > 79.8 | > 100 | – | – | – | – | – | – | – | – | – | – | – |
| CC(=O)OC1CC2(O)C(CCC3(C)C(c4ccc(=O)oc4)CCC32O)C2(C)C1=CC(O)C1OC12 (stereo unspecified) | 0.157 | 0.216 | 0.753 | 0.0366 | 0.0784 | 0.0697 | 0.772 | 0.258 | 0.144 | – | – | – | – | – | – | – | – | – | 0.179 | 0.135 |
| COc1cc2[nH]c(=O)c3cc(-c4ccccc4)cc4c(Cl)nc(c1OC)c2c43 | 64 | 12.9 | > 91 | > 44.7 | > 89.2 | > 100 | > 100 | 98.4 | > 66.1 | – | – | – | – | – | – | – | – | – | – | – |
| CC(=O)C1(O)CCC2(O)C3(O)CC=C4CC(O)CCC4(C)C3CC(OC(=O)c3ccc(O)cc3)C12C (stereo unspecified) | > 100 | > 100 | > 100 | > 100 | > 100 | > 100 | > 100 | > 100 | > 100 | – | – | – | – | – | – | – | – | – | – | – |
| O=C1c2cccnc2S(=O)(=O)N1c1ccc([N+](=O)[O-])cc1 | > 100 | > 100 | > 100 | > 100 | > 100 | > 100 | > 100 | > 100 | > 100 | – | – | – | – | – | – | – | – | – | – | – |
| O=C1/C(=C/c2ccncc2)C(n2cccc2)c2c(Br)sc(Br)c21 (stereo unspecified) | 8.87 | 10.4 | 4.67 | 4.64 | 30.5 | 3.38 | 29.2 | 5.82 | 3.55 | – | – | – | – | – | – | – | – | – | – | – |
| Cc1ccc(S(=O)(=O)c2c(O)c3ccc(O)c(C)c3oc2=O)cc1 | > 100 | > 100 | > 100 | > 100 | > 100 | > 100 | > 100 | > 100 | > 100 | – | – | – | – | – | – | – | – | – | – | – |
| CC1(C)N=C(N)N=C(N)N1c1cccc(OCc2cccc(N)c2)c1 | > 100 | > 100 | > 100 | > 100 | > 100 | > 100 | > 100 | > 100 | > 100 | – | – | – | – | – | – | – | – | – | – | – |
| CCCCCCCCCCCCOCCOCCOCCOCCOCCOCC(=O)NC(Cc1ccccc1)C(=O)Oc1ccc([N+](=O)[O-])cc1 (stereo unspecified) | > 100 | > 100 | > 100 | 74.8 | > 100 | 51.9 | > 100 | > 100 | > 100 | – | – | – | – | – | – | – | – | – | – | – |
